One assay has as its target T1, Mr 75000-85000 protein (Mus musculus, UniProt P21729).
T1 construct: endogenous in cells; host or cells: Swiss 3T3 cells (intact, confluent and quiescent)
The assay is described as follows: ^125 I-GRP affinity labelling (EGS cross-linking) of the Mr 75000-85000 protein in Swiss 3T3 cells. Format: binding. The method, then:
After 2.5 h the cells were washed three times at 15° C. with phosphate buffered saline (PBS) and then incubated for 15 min at 15° C. in 1 ml of binding medium, pH 7.4 in the presence of the appropriate cross-linking agent at the concentration indicated. The cross-linking agents (EGS, DSS, DSP and BSCOES) were dissolved in dimethyl sulphoxide immediately prior to use and were added to medium to give a final concentration of dimethylsulphoxide of 1-2%. The cultures were rapidly rinsed twice with PBS at 4° C. and solubilized in 0.1 ml of 2× sample buffer 0.2M Tris-HCl, pH 6.8, 10% (w/v) glycerol, 6% sodium dodecyl sulphate (SDS) (w/v) 4% β-mercaptoethanol (v/v) and 2 mM ethylenediaminetetraacetic acid. Samples were immediately heated at 100° C. for 3- 5 min and analysed by either one or two-dimensional gel electrophoresis.
Slab gel electrophoresis was performed using 7.5% acrylamide in the separating gel and 5% in the stacking gel, and 0.1% SDS (31). After electrophoresis gels were stained, destained and dried down onto paper for autoradiography with Fuji X-ray film (Fuji Photo Film Co. Ltd. Japan). Dried gels were exposed to film for 4-8 days. Two-dimensional gel electrophoresis was performed as described by O'Farrell (32) using isoelectric focusing in the 1st dimension and SDS-polyacrylamide gel electrophoresis (SDS-PAGE) (8% polyacrylamide) in the second dimension. The samples prepared for isoelectric focusing containing 1.4% LKB ampholytes, pH 5-7, plus 0.6% LKD ampholytes, pH,3.5-10, 6M urea, and 2% Nonidet P-40. The Mr 75000-85000 band from autoradiograms was scanned using a Joyce-Loebl double beam densitometer and the areas under specific peaks were measured with a Hewlett-Packard digitizer.
FIG. 4. […] Values are expressed as percentage of the specific binding obtained in the absence of antagonists. […] Each point represents the mean of 3 determinations. […] Specific binding (B) is expressed in pmol/10^6 cells and is shown in a double-reciprocal plot. Each point represents the mean of duplicate determinations. […] After 2 hours, the cultures were washed twice with binding medium then incubated in 1 ml containing 6 mM ethylene glycol bis (succinimidylsuccinate) (EGS) at pH 7.4 for 15 minutes at 15° C. The cultures were then washed twice with cold phosphate-buffered saline and solubilised in 0.1 ml of 2× sample buffer, then immediately heated at 100° C. for 5 minutes and electrophoresed on a 10% polyacrylamide gel.
After the incubation period cultures were treated with […] EGS as described in Materials and Methods. Each value is expressed as a percentage of the level of the Mr 75000-85000 protein obtained with no additions (-). Other experimental details are as described in Materials and Methods.

The test system of assay [1] is Swiss 3T3 cells. In words: DNA synthesis by [^3 H]thymidine incorporation in Swiss 3T3 cells (GRP-induced mitogenesis). The assay is classed as cell-based, mouse. The settings on record: for Ability to inhibit mitogenesis stimulated by GRP (relative potency): substance P antagonists tested at 50 μM. The method, then: Cell culture procedure (33), assays of DNA synthesis by ^3 H-thymidine incorporation (34) and ^125 I-GRP binding to intact cells (13) were performed as described previously.
FIG. 3. Inhibition of GRP-induced DNA synthesis by [DPro^2 ]spantide (A) and [DPhe^5 ]spantide (D). […] After 40 hours DNA synthesis was estimated by [^3 H]thymidine incorporation into acid-precipitable material. […] Each point represents the mean of duplicate determinations. […] Values are expressed as a percentage of [^3 H]thymidine incorporation obtained in the absence of antagonists (100%=8.6×10^5 cpm per dish). Each point represents the mean of 4 determinations.

The target in another assay is T2, GRP receptor (Mus musculus, UniProt P21729).
T2 construct: endogenous in cells; host or cells: Swiss 3T3 cells (intact, confluent and quiescent)
The note with it: reference (13); cited from earlier work.

For assay [2], the system named is Swiss 3T3 cells. The note with it: reference (13); cited from earlier work.
[3] abbreviates: ^125 I-GRP 0.5 nM, 15° C., 2.5 h, EGS, each addition at its own concentration.

Consider 15 compounds from patent publication US5441935A, “Growth factor receptors” (Imperial Cancer Research Technology Ltd., priority 1987, dated 1995).

Where two headings read alike, the source gives them in different places. Non-standard residues stand in square brackets, D forms with d. Residues, ends and D or L forms follow the SMILES beside them. No end group written: not given here. Tyr(3-I) = N[C@@H](Cc1ccc(O)c(I)c1)C(=O)O

T1 sequence (P21729 whole entry): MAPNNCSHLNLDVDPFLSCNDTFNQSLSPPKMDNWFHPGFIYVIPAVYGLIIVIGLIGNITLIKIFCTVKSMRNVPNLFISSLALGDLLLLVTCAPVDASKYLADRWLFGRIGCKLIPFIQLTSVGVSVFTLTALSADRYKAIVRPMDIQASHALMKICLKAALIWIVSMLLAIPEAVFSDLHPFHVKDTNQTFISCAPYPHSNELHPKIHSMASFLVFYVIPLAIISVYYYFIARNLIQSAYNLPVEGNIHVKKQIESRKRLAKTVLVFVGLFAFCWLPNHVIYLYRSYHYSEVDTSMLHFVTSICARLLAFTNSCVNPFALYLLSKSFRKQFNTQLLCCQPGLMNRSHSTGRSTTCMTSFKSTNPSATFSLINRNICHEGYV
T2 sequence (P21729 whole entry): as above

For `CC(C)C[C@H](NC(=O)[C@H](CC(C)C)NC(=O)[C@@H](Cc1c[nH]c2ccccc12)NC(=O)[C@H](Cc1ccccc1)NC(=O)[C@@H](Cc1c[nH]c2ccccc12)NC(=O)[C@H](CCC(N)=O)NC(=O)[C@H](CCC(N)=O)NC(=O)[C@@H]1CCCN1C(=O)[C@H](CCCCN)NC(=O)[C@H]1CCCN1C(=O)[C@H](N)CCCNC(=N)N)C(N)=O` [Antagonist A, D-Arg-D-Pro-Lys-Pro-Gln-Gln-D-Trp-Phe-D-Trp-Leu-Leu-NH2] (H-[dR][dP]KPQQ[dW]F[dW]LL-NH2), the “Mr 75000-85000 protein % of control” value at Mr 75000-85000 protein (setting [3]) is given as 9.7 % of control.
On to `CC(C)C[C@H](NC(=O)[C@H](CC(C)C)NC(=O)[C@@H](Cc1c[nH]c2ccccc12)NC(=O)[C@H](Cc1ccccc1)NC(=O)[C@@H](Cc1c[nH]c2ccccc12)NC(=O)[C@H](CCC(N)=O)NC(=O)[C@H](CCC(N)=O)NC(=O)[C@@H]1CCCN1C(=O)[C@H](CCCCN)NC(=O)[C@@H]1CCCN1C(=O)[C@H](N)CCCNC(=N)N)C(N)=O` [B, DArgProLysProGlnGlnDTrpPheDTrpLeuLeuNH2] (H-[dR]PKPQQ[dW]F[dW]LL-NH2), for which, in the assay on Swiss 3T3 cells [1] (even at 100 μM), the “Antagonist activity against GRP-stimulated mitogenesis” value was “no antagonist activity”. Moreover, the “Ability to inhibit mitogenesis stimulated by GRP (relative potency)” value with Swiss 3T3 cells [1] is on record as “less potent than either A or D”.
Take `CSCC[C@H](NC(=O)[C@H](CC(C)C)NC(=O)[C@H](Cc1cnc[nH]1)NC(=O)CNC(=O)[C@@H](NC(=O)[C@H](C)NC(=O)[C@H](Cc1c[nH]c2ccccc12)NC(=O)[C@H](CCC(N)=O)NC(=O)[C@H](CC(N)=O)NC(=O)CNC(=O)[C@H](CC(C)C)NC(=O)[C@H](CCCN=C(N)N)NC(=O)[C@H](CCC(N)=O)NC(=O)[C@@H]1CCC(=O)N1)C(C)C)C(N)=O` [Bombesin]: the “Mr 75000-85000 protein % of control” value on Mr 75000-85000 protein amounted to 0.5.
`C[C@H](N)C(=O)NCC(=O)N[C@H]1CSSC[C@@H](C(=O)O)NC(=O)[C@H](CO)NC(=O)[C@H]([C@@H](C)O)NC(=O)[C@H](Cc2ccccc2)NC(=O)[C@H]([C@@H](C)O)NC(=O)[C@H](CCCCN)NC(=O)[C@H](Cc2c[nH]c3ccccc23)NC(=O)[C@H](Cc2ccccc2)NC(=O)[C@H](Cc2ccccc2)NC(=O)[C@H](CC(N)=O)NC(=O)[C@H](CCCCN)NC1=O` [Somatostatin]: the “Mr 75000-85000 protein % of control” value at Mr 75000-85000 protein (setting [3]) is on record as 97 % of control.
Same read-out and setting: the same measure for `CSCC[C@H](NC(=O)[C@H](CC(C)C)NC(=O)CNC(=O)[C@H](Cc1ccccc1)NC(=O)[C@H](Cc1ccccc1)NC(=O)[C@H](CCC(N)=O)NC(=O)[C@H](CCC(N)=O)NC(=O)[C@@H]1CCCN1C(=O)[C@H](CCCCN)NC(=O)[C@@H]1CCCN1C(=O)[C@@H](N)CCCNC(=N)N)C(N)=O` [Substance P]: 91 % of control; for `NC(=O)CC[C@@H]1NC(=O)[C@H](Cc2ccccc2)NC(=O)[C@H](Cc2ccc(O)cc2)NC(=O)[C@@H](N)CSSC[C@@H](C(=O)N2CCC[C@H]2C(=O)N[C@@H](CCCN=C(N)N)C(=O)NCC(N)=O)NC(=O)[C@H](CC(N)=O)NC1=O` [Vasopressin]: 94 % of control.
Regarding `CSCC[C@H](NC(=O)[C@H](CC(C)C)NC(=O)[C@H](Cc1c[nH]cn1)NC(=O)CNC(=O)[C@@H](NC(=O)[C@H](C)NC(=O)[C@H](Cc1c[nH]c2ccccc12)NC(=O)[C@H](Cc1c[nH]cn1)NC(=O)[C@H](CC(N)=O)NC(=O)CNC(=O)[C@H](CCCNC(=N)N)NC(=O)[C@@H]1CCCN1C(=O)[C@H](Cc1ccc(O)c(I)c1)NC(=O)[C@H](CCSC)NC(=O)[C@H](CCCCN)NC(=O)[C@H](C)NC(=O)[C@H](CC(C)C)NC(=O)[C@@H](NC(=O)[C@@H](NC(=O)CNC(=O)CNC(=O)CNC(=O)[C@@H](NC(=O)[C@H](CO)NC(=O)[C@@H](NC(=O)[C@@H]1CCCN1C(=O)[C@H](C)N)C(C)C)C(C)C)[C@@H](C)O)C(C)C)C(C)C)C(N)=O` [^125 I-GRP] (H-APVSVGGGTVLAKM[Tyr(3-I)]PRGNHWAVGHLM-NH2; N-terminus and C-terminus assumed), on Mr 75000-85000 protein (15° C., 2.5 h, EGS 6 mM, read-out: Kd from double-reciprocal plot of cross-linking of ^125 I-GRP to the Mr 75000-85000 band), the Kd amounted to 1 nM.
In the case of EGF: epidermal growth factor, in the assay with Mr 75000-85000 protein (setting [3]), the “Mr 75000-85000 protein % of control” value was 94 % of control.
For the compound “GRP (1-16): the 1-16 amino acid (amino-terminal) fragment of GRP (VPLPAGGGTVLTKMYP; Gastrin-releasing peptide; UniProt P07492 24-39, looked up, fragment)”, in the assay with Mr 75000-85000 protein (setting [3]), the “Mr 75000-85000 protein % of control” value is given as 93 % of control. The “Inhibition of ^125 I-GRP binding” value with GRP receptor is “neither inhibits ^125 I-GRP binding”. In addition, the “Stimulation of DNA synthesis” value with Swiss 3T3 cells [2] is “nor stimulates DNA synthesis”.
As to “GRP (14-27): the 14-27 amino acid fragment of GRP (MYPRGNHWAVGHLM; ends and bridges not checked; UniProt P07492 37-50, looked up, fragment)”, the “Mr 75000-85000 protein % of control” value with Mr 75000-85000 protein (setting [3]) is on record as 0.4 % of control.
As for HArgGlyGlnDTrpPheGlyAsp(OtBu)2 [J], the “Ability to inhibit mitogenesis stimulated by GRP (relative potency)” value in the assay on Swiss 3T3 cells [1] is “less potent than either A or D”.
Take Insulin: mitogen for Swiss 3T3 cells: the “Mr 75000-85000 protein % of control” value with Mr 75000-85000 protein (setting [3]) is 90 % of control.
Still for that read-out and setting: the same measure for Litorin: 2 % of control; for PDGF: 99 % of control; for Substance K: neuropeptide: 94 % of control.

For orientation: Kd means the free concentration of one partner at which half of the binding sites on the other are occupied at equilibrium, for simple one-to-one binding.
